Our source for the IC50 values is patent publication US10550105B2 (Ribon Therapeutics Inc., priority 2018, dated 2020).

In this test the target is PARP7 (Homo sapiens (Human), UniProt Q7Z3E1). Kind of test: Enzymatic assay for inhibition of PARP7: TR-FRET displacement of biotinylated Probe A from the TIPARP active site. As to conditions: Table A-1. Format: binding. On the procedure: 20 nL of a dose response curve of each test compound was spotted in black 384-well polystyrene proxiplates (Perkin Elmer) using a Mosquito (TTP Labtech). […] Reactions were incubated at 25° C. for an additional 30 min, then read on an Envision platereader equipped with a LANCE/DELFIA top mirror (Perkin Elmer) using excitation of 320 nm and emission of 615 nm and […] with a 90 μs delay. The ratio of the 665/615 nm emission were calculated for each well to determine the amount of complex of TIPARP and Probe A in each well. […] The Hill Coefficient is normally allowed to float but may also be fixed at 1 in a 3-parameter fit. Y is the % inhibition and x is the compound concentration.
Chain of PARP7 (Q7Z3E1 whole entry): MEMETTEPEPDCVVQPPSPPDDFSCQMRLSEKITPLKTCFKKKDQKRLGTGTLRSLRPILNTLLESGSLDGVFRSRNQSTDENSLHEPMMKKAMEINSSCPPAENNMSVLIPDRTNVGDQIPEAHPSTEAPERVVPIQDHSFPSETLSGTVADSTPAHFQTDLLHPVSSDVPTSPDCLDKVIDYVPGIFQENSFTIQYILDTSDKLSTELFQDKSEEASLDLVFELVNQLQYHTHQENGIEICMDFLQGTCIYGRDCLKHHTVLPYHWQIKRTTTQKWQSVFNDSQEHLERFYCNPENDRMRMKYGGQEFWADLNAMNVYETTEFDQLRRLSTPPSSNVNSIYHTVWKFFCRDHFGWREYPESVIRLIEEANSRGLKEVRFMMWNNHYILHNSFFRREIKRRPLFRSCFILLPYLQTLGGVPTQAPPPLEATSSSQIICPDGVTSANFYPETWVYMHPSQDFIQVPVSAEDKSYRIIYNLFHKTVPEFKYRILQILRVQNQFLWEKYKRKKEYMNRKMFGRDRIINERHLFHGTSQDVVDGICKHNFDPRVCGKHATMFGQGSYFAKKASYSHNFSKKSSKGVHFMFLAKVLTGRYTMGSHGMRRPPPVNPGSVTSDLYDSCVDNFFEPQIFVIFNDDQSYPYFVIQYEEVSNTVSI
(In general: In TR-FRET formats the signal depends on donor and acceptor labels being close together.)

Some results are limits rather than exact numbers.

As a reminder, the IC50 is the concentration that inhibits the measured activity by half. A lower IC50 goes with inhibition by little substance. Consider `O=C(C[C@@H]1CC[C@H](COc2cn[nH]c(=O)c2Cl)O1)N1CCN(c2ncc(Cl)cn2)CC1` (single isomer, unassigned) [Example 566 Isomer D], for which the IC50 was at least 1000 nM.
For `O=C(C[C@H]1CC[C@@H](CNc2cn[nH]c(=O)c2C(F)(F)F)O1)N1CCN(c2ncc(Cl)cn2)CC1` (single isomer, unassigned) [Example 567 Isomer A] the value was under 100 nM; for `O=C(C[C@@H]1CC[C@H](CNc2cn[nH]c(=O)c2C(F)(F)F)O1)N1CCN(c2ncc(Cl)cn2)CC1` (single isomer, unassigned) [Example 567 Isomer B], under 100 nM; for `O=C(C[C@@H]1CC[C@@H](CNc2cn[nH]c(=O)c2C(F)(F)F)O1)N1CCN(c2ncc(Cl)cn2)CC1` (single isomer, unassigned) [Example 567 Isomer C], under 100 nM.
In turn, `O=C(C[C@H]1CC[C@H](CNc2cn[nH]c(=O)c2C(F)(F)F)O1)N1CCN(c2ncc(Cl)cn2)CC1` (single isomer, unassigned) [Example 567 Isomer D] returned an IC50 of under 100 nM.
Take `O=C(C[C@@H]1CC[C@@H](CNc2cn[nH]c(=O)c2C(F)(F)F)O1)N1CCN(c2ncc(C(F)(F)F)cn2)CC1` (single isomer, unassigned) [Example 568 Isomer A]: the IC50 was under 100 nM.
`O=C(C[C@H]1CC[C@H](CNc2cn[nH]c(=O)c2C(F)(F)F)O1)N1CCN(c2ncc(C(F)(F)F)cn2)CC1` (single isomer, unassigned) [Example 568 Isomer B] returned an IC50 of under 100 nM.
As for `COC[C@@H](COCCC(=O)N1CCN(c2ncc(C(F)(F)F)cn2)CC1)Oc1cn[nH]c(=O)c1C(F)(F)F` (single isomer, unassigned) [Example 570 Isomer A], the figure is under 100 nM; as for `COC[C@H](COCCC(=O)N1CCN(c2ncc(C(F)(F)F)cn2)CC1)Oc1cn[nH]c(=O)c1C(F)(F)F` (single isomer, unassigned) [Example 570 Isomer B], 100 to 1000 nM; as for `COC[C@H](CO[C@H](C)CC(=O)N1CCN(c2ccc(C#N)cn2)CC1)Oc1cn[nH]c(=O)c1C(F)(F)F` (single isomer, unassigned) [Example 571 Isomer A], under 100 nM.
As for `COC[C@@H](CO[C@@H](C)CC(=O)N1CCN(c2ccc(C#N)cn2)CC1)Oc1cn[nH]c(=O)c1C(F)(F)F` (single isomer, unassigned) [Example 571 Isomer B], the figure is 100 to 1000 nM; as for `COC[C@H](CO[C@H](C)CC(=O)N1CCN(c2ccc(C#N)cn2)CC1)Oc1cn[nH]c(=O)c1C(F)(F)F` (single isomer, unassigned) [Example 571 Isomer C], at least 1000 nM.
For `COC[C@@H](CO[C@H](C)CC(=O)N1CCN(c2ccc(C#N)cn2)CC1)Oc1cn[nH]c(=O)c1C(F)(F)F` (single isomer, unassigned) [Example 571 Isomer D] the value was 100 to 1000 nM; for `N#Cc1ccc(N2CCN(C(=O)CCO[C@H]3CCC[C@@H]3Oc3cn[nH]c(=O)c3C(F)(F)F)CC2)nc1` (single isomer, unassigned) [Example 572 Isomer A], under 100 nM.
In turn, `N#Cc1ccc(N2CCN(C(=O)CCO[C@@H]3CCC[C@H]3Oc3cn[nH]c(=O)c3C(F)(F)F)CC2)nc1` (single isomer, unassigned) [Example 572 Isomer B] registered an IC50 of 100 to 1000 nM.
As for `N#Cc1ccc(N2CCN(C(=O)CCO[C@@H](CO)COc3cn[nH]c(=O)c3C(F)(F)F)CC2)nc1` (single isomer, unassigned) [Example 573 Isomer A], the figure is under 100 nM.
In turn, `N#Cc1ccc(N2CCN(C(=O)CCOC[C@@H](CO)Oc3cn[nH]c(=O)c3C(F)(F)F)CC2)nc1` (single isomer, unassigned) [Example 573 Isomer B] had an IC50 of under 100 nM.
The molecule `N#Cc1ccc(N2CCN(C(=O)CCOC[C@H](CO)Oc3cn[nH]c(=O)c3C(F)(F)F)CC2)nc1` (single isomer, unassigned) [Example 573 Isomer C] displayed an IC50 of under 100 nM.
For `N#Cc1ccc(N2CCN(C(=O)CCO[C@H](CO)COc3cn[nH]c(=O)c3C(F)(F)F)CC2)nc1` (single isomer, unassigned) [Example 573 Isomer D] the value was under 100 nM; for `O=C(C[C@@H]1CC[C@@H](COc2cn[nH]c(=O)c2C(F)(F)F)O1)N1CCN(c2ncc(C(F)(F)F)cn2)CC1` (single isomer, unassigned) [Example 574 Isomer A], 100 to 1000 nM.
For `O=C(C[C@H]1CC[C@H](COc2cn[nH]c(=O)c2C(F)(F)F)O1)N1CCN(c2ncc(C(F)(F)F)cn2)CC1` (single isomer, unassigned) [Example 574 Isomer B] the value was 100 to 1000 nM; for `O=C(C[C@@H]1CC[C@@H](COc2cn[nH]c(=O)c2Cl)O1)N1CCN(c2ncc(C(F)(F)F)cn2)CC1` (single isomer, unassigned) [Example 575 Isomer A], at least 1000 nM.
In turn, `O=C(C[C@H]1CC[C@H](COc2cn[nH]c(=O)c2Cl)O1)N1CCN(c2ncc(C(F)(F)F)cn2)CC1` (single isomer, unassigned) [Example 575 Isomer B] displayed an IC50 of at least 1000 nM.
`C[C@H](CC(=O)N1CCN(c2ccc(C#N)cn2)CC1)OC[C@H](C)Oc1cn[nH]c(=O)c1C(F)(F)F` (single isomer, unassigned) [Example 576 Isomer A]: the IC50 was under 100 nM.
As for `C[C@@H](CC(=O)N1CCN(c2ccc(C#N)cn2)CC1)OC[C@H](C)Oc1cn[nH]c(=O)c1C(F)(F)F` (single isomer, unassigned) [Example 576 Isomer B], the figure is under 100 nM; as for `C[C@@H](COCCC(=O)N1CCN(c2ncc(Cl)cn2)CC1)Oc1cn[nH]c(=O)c1Cl` (single isomer, unassigned) [Example 577 Isomer A], under 100 nM.
`C[C@@H](COc1cn[nH]c(=O)c1Cl)OCCC(=O)N1CCN(c2ncc(Cl)cn2)CC1` (single isomer, unassigned) [Example 577 Isomer B] gave a half-maximal inhibitory concentration (IC50) of under 100 nM.
As to `C[C@@H](COCCC(=O)N1CCN(c2ncc(C(F)(F)F)cn2)CC1)Oc1cn[nH]c(=O)c1Cl` (single isomer, unassigned) [Example 578 Isomer A], the IC50 is under 100 nM.
Molecule `N#Cc1ccc(N2CCN(C(=O)C[C@@H]3CC[C@@H](COc4cn[nH]c(=O)c4C(F)(F)F)O3)CC2)nc1` (single isomer, unassigned) [Example 580 Isomer A] gave an IC50 of 100 to 1000 nM.
`N#Cc1ccc(N2CCN(C(=O)C[C@H]3CC[C@H](COc4cn[nH]c(=O)c4C(F)(F)F)O3)CC2)nc1` (single isomer, unassigned) [Example 580 Isomer B] showed an IC50 of 100 to 1000 nM.
In turn, `N#Cc1ccc(N2CCN(C(=O)C[C@H]3CC[C@@H](CNc4cn[nH]c(=O)c4C(F)(F)F)O3)CC2)nc1` (single isomer, unassigned) [Example 581 Isomer A] showed an IC50 of under 100 nM.
In turn, `N#Cc1ccc(N2CCN(C(=O)C[C@@H]3CC[C@@H](CNc4cn[nH]c(=O)c4C(F)(F)F)O3)CC2)nc1` (single isomer, unassigned) [Example 581 Isomer B] yielded an IC50 of under 100 nM.
For `N#Cc1ccc(N2CCN(C(=O)C[C@@H]3CC[C@@H](COc4cn[nH]c(=O)c4Cl)O3)CC2)nc1` (single isomer, unassigned) [Example 582 Isomer A] the value was at least 1000 nM.
